Where two headings read alike, the source gives them in different places.
Tests used:
[1] = molecular target: JAK2 kinase domain (JH1) (Homo sapiens (Human), UniProt O60674); assay: JAK2 Radioactive Kinase Assay; assay type: biochemical; settings: for inhibition at 10 µM: read-out: JAK2 JH1% Inhibition @ 10 μM
Description: (§1) The Tyk2 and JAK2 radioactive kinase assay measures the percent inhibition at the Tyk2 kinase domain (DH1) and the percent inhibition at the JAK2 kinase domain (JH1). Results of the assay are expressed as percent inhibition at 10 μM.

[2] = molecular target: Tyk2 kinase domain (DH1) (Homo sapiens (Human), UniProt P29597); assay: Tyk2 Radioactive Kinase Assay; assay type: biochemical; settings: for inhibition at 10 µM: read-out: Tyk2 JH1% Inhibition @ 10 μM
Chain of Tyk2 kinase domain (DH1) (P29597 897-1176): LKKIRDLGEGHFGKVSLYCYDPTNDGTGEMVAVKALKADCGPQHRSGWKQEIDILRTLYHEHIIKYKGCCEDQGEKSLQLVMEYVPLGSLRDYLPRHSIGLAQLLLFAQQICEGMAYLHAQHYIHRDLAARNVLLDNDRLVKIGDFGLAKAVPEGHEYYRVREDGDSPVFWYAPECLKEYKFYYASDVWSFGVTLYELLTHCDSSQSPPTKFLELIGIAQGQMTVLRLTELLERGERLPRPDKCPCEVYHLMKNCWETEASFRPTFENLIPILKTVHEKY
Description: as §1

Chain of JAK2 kinase domain (JH1) (O60674 849-1124): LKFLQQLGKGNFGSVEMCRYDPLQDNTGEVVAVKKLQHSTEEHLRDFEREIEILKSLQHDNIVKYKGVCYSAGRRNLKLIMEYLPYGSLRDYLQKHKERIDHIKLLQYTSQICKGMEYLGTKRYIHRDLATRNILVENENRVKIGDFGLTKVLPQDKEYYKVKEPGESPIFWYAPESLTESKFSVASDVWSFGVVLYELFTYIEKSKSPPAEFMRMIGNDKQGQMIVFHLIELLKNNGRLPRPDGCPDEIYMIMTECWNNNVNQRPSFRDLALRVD

Row | SMILES | JAK2 JH1% Inhibition @ 10 μM ([1]; 10 μM compound, 10 μM ATP) | Tyk2 JH1% Inhibition @ 10 μM ([2]; 10 μM compound, 10 μM ATP) | JAK2 JH1% Inhibition @ 10 μM ([1]; compound at 10 μM, ATP 10 μM) | Tyk2 JH1% Inhibition @ 10 μM ([2]; compound at 10 μM, ATP 10 μM) | further results
1 | CNc1cc(Nc2cccn([C@H]3C[C@@H]3F)c2=O)nc2c(C(=O)NCC3(CO)CC3)cnn12 [I-1121, 5-((1-((1S,2S)-2-fluorocyclopropyl)-2-oxo-1,2-dihydropyridin-3-yl)amino)-N-((1-(hydroxymethyl)cyclopropyl)methyl)-7-(methylamino)pyrazolo[1,5-a]pyrimidine-3-carboxamide] | A (percent inhibition at 10 μM lower than 50) | A (percent inhibition at 10 μM lower than 50) | – | – | –
2 | CNc1cc(Nc2cccn(-c3ccccn3)c2=O)nc2c(C(=O)N[C@H]3CC[C@@H]3OC)cnn12 [I-909, N-((1S,2S)-2-methoxycyclobutyl)-7-(methylamino)-5-((2-oxo-2H-[1,2′-bipyridin]-3-yl)amino)pyrazolo[1,5-a]pyrimidine-3-carboxamide] | – | – | – | – | inhibition at 10 µM [1]: < 50%; inhibition at 10 µM [2]: < 50%
3 | CNc1cc(-c2cn(CCN3CCN(C)CC3)c3ncccc23)nc2c(C(=O)N[C@H]3CC[C@@H]3O)cnn12 [I-920, N-((1S,2S)-2-hydroxycyclobutyl)-7-(methylamino)-5-(1-(2-(4-methylpiperazin-1-yl)ethyl)-1H-pyrrolo[2,3-b]pyridin-3-yl)pyrazolo[1,5-a]pyrimidine-3-carboxamide] | A (percent inhibition at 10 μM lower than 50) | A (percent inhibition at 10 μM lower than 50) | – | – | –
4 | CNc1cc(Nc2cccnc2OC)nc2c(C(=O)N[C@@H]3CCC[C@H]3O)cnn12 [I-448, (R)—N-((1R,2R)-2-hydroxycyclopentyl)-5-((2-methoxypyridin-3-yl)amino)-7-(methylamino)pyrazolo[1,5-a]pyrimidine-3-carboxamide] | – | – | A (percent inhibition at 10 μM lower than 50) | A (percent inhibition at 10 μM lower than 50) | –
5 | CNc1cc(Nc2cccc([C@H]3CCCOC3)n2)nc2c(C(=O)N[C@H]3CC[C@@H]3O)cnn12 [I-666] | – | – | A (percent inhibition at 10 μM lower than 50) | A (percent inhibition at 10 μM lower than 50) | –
6 | CNc1cc(Nc2cc(Cl)cn(C3CCOCC3)c2=O)nc2c(C(=O)N[C@H]3CC[C@@H]3O)cnn12 [I-826] | – | – | – | – | inhibition at 10 µM ([1]; 10 μM compound, 10 μM ATP): < 50%; inhibition at 10 µM ([2]; 10 μM compound, 10 μM ATP): < 50%
7 | CNc1cc(Nc2cccn(C(C)C)c2=O)nc2c(C(=O)N[C@@H]3CC[C@H]3O)cnn12 [I-981] | A (percent inhibition at 10 μM lower than 50) | A (percent inhibition at 10 μM lower than 50) | – | – | –
8 | CNc1cc(Nc2cccn(C3CCN(CCF)CC3)c2=O)nc2c(C(=O)N[C@H]3CC[C@H]3O)cnn12 [I-896] | A (percent inhibition at 10 μM lower than 50) | A (percent inhibition at 10 μM lower than 50) | – | – | –
9 | CNc1cc(Nc2cccn(-c3nc(C)co3)c2=O)nc2c(C(=O)N[C@H]3CC[C@@H]3O)cnn12 [I-769] | – | – | A (percent inhibition at 10 μM lower than 50) | A (percent inhibition at 10 μM lower than 50) | –
10 | CNc1cc(Nc2cccn([C@H]3CCC[C@H](OC)C3)c2=O)nc2c(C(=O)NCC3(CO)CC3)cnn12 [I-1086] | A (percent inhibition at 10 μM lower than 50) | A (percent inhibition at 10 μM lower than 50) | – | – | –
11 | CNc1cc(Nc2cccn([C@H]3CCN(C)C[C@@H]3F)c2=O)nc2c(C(=O)NC3CC3)cnn12 [I-685] | – | – | A (percent inhibition at 10 μM lower than 50) | A (percent inhibition at 10 μM lower than 50) | –
12 | CNc1cc(Nc2cccn([C@@H]3CCC[C@H](OC)C3)c2=O)nc2c(C(=O)N[C@@H]3CC[C@H]3O)cnn12 [I-994] | A (percent inhibition at 10 μM lower than 50) | A (percent inhibition at 10 μM lower than 50) | – | – | –
13 | CNc1cc(Nc2cccn([C@@H]3CCCOC3)c2=O)nc2c(C(=O)N[C@H]3COC[C@H]3O)cnn12 [I-786] | – | – | A (percent inhibition at 10 μM lower than 50) | A (percent inhibition at 10 μM lower than 50) | –
14 | CNc1cc(Nc2cccn(C3CC4(COC4)C3)c2=O)nc2c(C(=O)N[C@H]3CC[C@H]3O)cnn12 [I-870] | – | – | – | – | inhibition at 10 µM ([1]; 10 μM compound, 10 μM ATP): < 50%; inhibition at 10 µM ([2]; 10 μM compound, 10 μM ATP): < 50%
15 | CNc1cc(-c2cn(CCN3CCOCC3)c3ncccc23)nc2c(C(=O)N[C@@H]3CC[C@H]3O)cnn12 [I-835] | – | – | – | – | inhibition at 10 µM ([1]; 10 μM compound, 10 μM ATP): < 50%; inhibition at 10 µM ([2]; 10 μM compound, 10 μM ATP): < 50%
16 | CNc1cc(Nc2cccn(-c3ccccc3F)c2=O)nc2c(C(=O)N[C@H]3CC[C@H]3O)cnn12 [I-939] | A (percent inhibition at 10 μM lower than 50) | A (percent inhibition at 10 μM lower than 50) | – | – | –
17 | CNc1cc(Nc2cccn(C(C)C)c2=O)nc2c(C(=O)N[C@H]3CCC[C@H](O)C3)cnn12 [I-919, 5-N-(3-hydroxycyclohexyl)-5-((1-isopropyl-2-oxo-1,2-dihydropyridin-3-yl)amino)-7-(methylamino)pyrazolo[1,5-a]pyrimidine-3-carboxamide] | A (percent inhibition at 10 μM lower than 50) | A (percent inhibition at 10 μM lower than 50) | – | – | –

Row | SMILES | JAK2 JH1% Inhibition @ 10 μM ([1]; 10 μM compound, 10 μM ATP) | Tyk2 JH1% Inhibition @ 10 μM ([2]; 10 μM compound, 10 μM ATP) | JAK2 JH1% Inhibition @ 10 μM ([1]; compound at 10 μM, ATP 10 μM) | Tyk2 JH1% Inhibition @ 10 μM ([2]; compound at 10 μM, ATP 10 μM) | further results
18 | CNc1cc(Nc2cccn([C@H]3CCC[C@H](O)C3)c2=O)nc2c(C(=O)NC3CC3)cnn12 [I-821] | – | – | – | – | inhibition at 10 µM ([1]; 10 μM compound, 10 μM ATP): < 50%; inhibition at 10 µM ([2]; 10 μM compound, 10 μM ATP): < 50%
19 | CNc1cc(Nc2cccn([C@@H]3CCCOC3)c2=O)nc2c(C(=O)N[C@@H]3CCC[C@@H](O)C3)cnn12 [I-780] | – | – | A (percent inhibition at 10 μM lower than 50) | A (percent inhibition at 10 μM lower than 50) | –
20 | CNc1cc(Nc2cccn([C@H]3CC[C@@H]3OC)c2=O)nc2c(C(=O)N[C@@H]3C[C@@H]3F)cnn12 [I-1021] | – | – | – | – | inhibition at 10 µM ([1]; 10 μM compound, 10 μM ATP): < 50%; inhibition at 10 µM ([2]; 10 μM compound, 10 μM ATP): < 50%
21 | CNc1cc(-c2cn(C(C)C)c3ncccc23)nc2c(C(=O)N[C@@H]3C[C@H]3O)cnn12 (stereo in doubt) [I-732, N-((1R,2R)-2-hydroxycyclopropyl)-5-(1-isopropyl-1H-pyrrolo[2,3-b]pyridin-3-yl)-7-(methylamino)pyrazolo[1,5-a]pyrimidine-3-carboxamide] | – | – | A (percent inhibition at 10 μM lower than 50) | A (percent inhibition at 10 μM lower than 50) | –
22 | CNc1cc(Nc2cccn([C@H]3CC[C@H](OC)CC3)c2=O)nc2c(C(=O)N[C@H]3CC[C@@H]3O)cnn12 [I-636] | – | – | A (percent inhibition at 10 μM lower than 50) | A (percent inhibition at 10 μM lower than 50) | –
23 | CNc1cc(Nc2cccn(C(C)C)c2=O)nc2c(C(=O)N[C@H]3CC[C@H]3O)cnn12 [I-977] | A (percent inhibition at 10 μM lower than 50) | A (percent inhibition at 10 μM lower than 50) | – | – | –
24 | CNc1cc(Nc2cccn(-c3ccccc3F)c2=O)nc2c(C(=O)N[C@@H]3CC[C@H]3O)cnn12 [I-940] | A (percent inhibition at 10 μM lower than 50) | A (percent inhibition at 10 μM lower than 50) | – | – | –
25 | CNc1cc(Nc2cccn([C@@H]3C[C@H]3F)c2=O)nc2c(C(=O)NC3CC3)cnn12 [I-866] | – | – | – | – | inhibition at 10 µM ([1]; 10 μM compound, 10 μM ATP): < 50%; inhibition at 10 µM ([2]; 10 μM compound, 10 μM ATP): < 50%
26 | CNc1cc(Nc2cccn([C@H]3CCC[C@@H](OC)C3)c2=O)nc2c(C(=O)N[C@@H]3C[C@@H]3F)cnn12 [I-839] | – | – | – | – | inhibition at 10 µM ([1]; 10 μM compound, 10 μM ATP): < 50%; inhibition at 10 µM ([2]; 10 μM compound, 10 μM ATP): < 50%
27 | CNc1cc(Nc2cccn(C3CCN(CCF)CC3)c2=O)nc2c(C(=O)N[C@@H]3CC[C@H]3O)cnn12 [I-898] | A (percent inhibition at 10 μM lower than 50) | A (percent inhibition at 10 μM lower than 50) | – | – | –
28 | CNc1cc(Nc2cccn([C@H]3CC[C@@H]3OC)c2=O)nc2c(C(=O)NC3CC3)cnn12 [I-936] | A (percent inhibition at 10 μM lower than 50) | A (percent inhibition at 10 μM lower than 50) | – | – | –
29 | CNc1cc(Nc2cccc(N3CCCC3=O)n2)nc2c(C(=O)N[C@@H]3CC[C@@H]3O)cnn12 [I-970] | – | – | – | – | inhibition at 10 µM ([1]; 10 μM compound, 10 μM ATP): < 50%; inhibition at 10 µM ([2]; 10 μM compound, 10 μM ATP): < 50%
30 | CNc1cc(Nc2cccn([C@@H]3CCC[C@@H](O)C3)c2=O)nc2c(C(=O)N[C@@H]3C[C@@H]3F)cnn12 [I-983] | A (percent inhibition at 10 μM lower than 50) | A (percent inhibition at 10 μM lower than 50) | – | – | –
31 | CNc1cc(Nc2cccn(-c3cccc(F)c3)c2=O)nc2c(C(=O)N[C@H]3CC[C@H]3O)cnn12 [I-945] | – | – | – | – | inhibition at 10 µM ([1]; 10 μM compound, 10 μM ATP): < 50%; inhibition at 10 µM ([2]; 10 μM compound, 10 μM ATP): < 50%
32 | CNc1cc(Nc2cccc([C@@H]3CCCCO3)n2)nc2c(C(=O)N[C@@H]3CC[C@@H]3O)cnn12 [I-646] | – | – | A (percent inhibition at 10 μM lower than 50) | A (percent inhibition at 10 μM lower than 50) | –
33 | CNc1cc(Nc2cccn([C@@H]3CCCOC3)c2=O)nc2c(C(=O)N[C@H]3CC[C@@H]3O)cnn12 [I-726] | – | – | A (percent inhibition at 10 μM lower than 50) | A (percent inhibition at 10 μM lower than 50) | –

— US10508120B2, “TYK2 inhibitors and uses thereof” (Nimbus Lakshmi, Inc., priority 2017, dated 2019)
